1 molecule from ChEMBL document CHEMBL5252631, “A pharmacophore-based approach to demonstrating the scope of alcohol dehydrogenases” (Bioorg Med Chem, 2023) can be followed below.

A short description of assay [1]: Substrate activity at ADH150 (unknown origin) assessed as specific enzyme activity using NADPH as cofactor at 2.5 to 10 mM measured for 30 mins in presence of Tris HCL buffer by UV-Vis spectroscopy analysis. The following applies: Homo sapiens, dose 2.5-10 mM.
Assay [2] is described as follows: Substrate activity at ADH101 (unknown origin) assessed as specific enzyme activity using NADH as cofactor at 2.5 to 10 mM measured for 30 mins in presence of Tris HCL buffer by UV-Vis spectroscopy analysis. Conditions: dose 2.5-10 mM.
The nature of assay [3]: Substrate activity at ADH20 (unknown origin) assessed as specific enzyme activity using NADPH as cofactor at 2.5 to 10 mM measured for 30 mins in presence of Tris HCL buffer by UV-Vis spectroscopy analysis. The following applies: Homo sapiens, dose 2.5-10 mM.
Assay [4] can be described thus: Substrate activity at ADH19 (unknown origin) assessed as specific enzyme activity using NADPH as cofactor at 2.5 to 10 mM measured for 30 mins in presence of Tris HCL buffer by UV-Vis spectroscopy analysis. Conditions: Homo sapiens, dose 2.5-10 mM.
Assay [5] can be described thus: Substrate activity at ADH105 (unknown origin) assessed as specific enzyme activity using NADH as cofactor at 2.5 to 10 mM measured for 30 mins in presence of Tris HCL buffer by UV-Vis spectroscopy analysis. The following applies: Homo sapiens, dose 2.5-10 mM.
Assay [6] can be described thus: Substrate activity at ADH61 (unknown origin) assessed as specific enzyme activity using NADPH as cofactor at 2.5 to 10 mM measured for 30 mins in presence of Tris HCL buffer by UV-Vis spectroscopy analysis. Conditions: Homo sapiens, dose 2.5-10 mM.
The nature of assay [7]: Substrate activity at ADH105 (unknown origin) assessed as specific enzyme activity using NADH as cofactor at 2.5 to 10 mM measured for 30 mins in presence of 20% hexane-Tris HCL buffer by UV-Vis spectroscopy analysis. Conditions: dose 2.5-10 mM.

`COc1ccc2c(c1)CCCC2=O`: the Activity in assay [1] was found to be 7.83 nmol/min/mg; in assay [2] it was 6.9 nmol/min/mg; in assay [3] it was 31.3 nmol/min/mg; in assay [4] it was 14.3 nmol/min/mg; in assay [5] it was 9 nmol/min/mg; in assay [6], 56.4 nmol/min/mg. Further, the Activity in assay [7] came to 36 nmol/min/mg.
